Assay results published in article PMC11832194, “Cystatin from Austrelaps superbus snake venom as a model for identifying potential inhibitors of Trypanosoma cruzi cruzain” (The Journal of Venomous Animals and Toxins Including …, 2025).
Like-named read-outs stand apart in the source and are kept apart here. No end group written: not given here.

Columns and labels:
cruzain = biological target: T1, cruzain (Trypanosoma cruzi, UniProt P25779); experiment: Inhibition of cruzain enzymatic (proteolytic) activity, casein substrate; format: biochemical; conditions: cruzain 50 μM, peptide 500 to 62.5 μM, 1% casein substrate, Tris-HCl 0.1 M pH 8, 37°C, absorbance 280 nm, read-out: I50(µM) ± SD, inhibition of cruzain proteolytic activity
T1 construct: From 40 to 120 minutes, mature cruzain was obtained in a soluble and enzymatically active form; His tag (histidine tail); made in house; host or cells: E. coli BL21 DE3 (pET 21a (+) with the pro-cruzain gene)
T1 sequence (P25779 123-337): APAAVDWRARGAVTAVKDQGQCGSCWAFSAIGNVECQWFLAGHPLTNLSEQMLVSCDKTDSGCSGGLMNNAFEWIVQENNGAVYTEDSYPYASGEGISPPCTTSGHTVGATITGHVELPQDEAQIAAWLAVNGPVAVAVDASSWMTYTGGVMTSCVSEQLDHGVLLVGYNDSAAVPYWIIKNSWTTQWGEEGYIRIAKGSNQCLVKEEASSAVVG
Experimental: Cruzain at a final concentration of 50 μM was incubated for 30 minutes at 37°C with various concentrations of AsCystatin (50-6.25 μM). Subsequently, 1% casein substrate diluted in Tris-HCl 0.1 M, pH 8, was added. The mixture was incubated again for 30 minutes at 37°C, and the reaction was stopped by adding 250 μL of 20% Trichloroacetic Acid (TCA), followed by a 30-minute rest period at room temperature. Finally, the mixture was centrifuged at 10,000 × g for 15 minutes. Enzymatic activity inhibition was estimated by recording the absorbance of the supernatant at 280 nm using a microplate spectrophotometer (BioTek Eon). The concentration required to inhibit 50% of cruzain enzymatic activity was determined using GraphPad Prism 6.0 software.
The peptides designed, as mentioned in the previous section, were synthesized by AminoTech (São Paulo, Brazil). Subsequently, the ability of the synthetic peptides to inhibit cruzain enzymatic activity was assessed. For this procedure, different concentrations of each peptide (500 to 62.5 μM) were incubated with 50 μM cruzain, and the steps detailed in the section […] were carried out.

[1] = biological target: epimastigote forms of clone CL B5 of Trypanosoma cruzi; experiment: In vitro trypanocidal activity on epimastigotes (CPRG, β-galactosidase); format: cell-based; conditions: T. cruzi CL B5 lacZ epimastigotes, 2.5 × 10^5 parasites/mL, 72 hours at 28°C, peptides 500-62.5 µM, CPRG read-out at 590 nm
Experimental: To assess the trypanocidal activity of the synthetic peptides, epimastigote forms of clone CL B5 of Trypanosoma cruzi, transfected with the Escherichia coli β-galactosidase gene (lacZ), were used. The parasites were cultivated at 28°C in liver infusion tryptose (LIT) medium, supplemented with 10% fetal bovine serum (FBS) and the antibiotics penicillin and streptomycin. About 200 µL of epimastigotes at 2.5 × 10^5 parasites/mL concentration were plated in a 96-well plate. The parasites were incubated at 28°C for 72 hours with different concentrations of peptides (500-62.5 µM). Then, 50 µL of chlorophenol red-β-D-galactopyranoside (CPRG) solution was added, reaching a final concentration of 200 µM. The plate was incubated again at 37°C for 4 hours, and absorbance was monitored at 590 nm using a spectrophotometer (Synergy H1 multi-mode BIOTEK). Benznidazole was used as a positive control. The half maximal inhibitory concentration (IC50) was determined using GraphPad Prism (v.6.01) software.

[2] = tested on: NCTC clone 929 fibroblasts; experiment: In vitro cytotoxicity on fibroblasts (resazurin); format: cell-based, murine; conditions: NCTC929 cells, 2 × 10^4 cells per well, 48 hours 37°C 5% CO2, peptides 500-62.5 µM, absorbance 570 and 600 nm
Experimental: In these experiments, NCTC clone 929 fibroblasts were cultured in a 96-well plate with 180 µL of minimal essential medium (MEM) supplemented with 10% FBS, penicillin and streptomycin antibiotics. About 2 × 10^4 cells per well were cultured and incubated at 37°C for 48 hours in a 5% CO2 environment with different concentrations of synthetic peptides (500-62.5 µM). Then, 20 µL of a resazurin solution was added, reaching a final concentration of 2 mM. The plate was incubated again at 37°C for 4 hours, and absorbance was monitored at 570 and 600 nm using a Synergy H1 multi-mode spectrophotometer (BIOTEK). GraphPad Prism software determined the half-maximal cytotoxic concentration (CC50) (v.6.01). The CC50 of the reference drug benznidazole was also determined to finally determine the selectivity index

[3] = read-out: IC50 (µM) ± SD, trypanocidal activity

In the case of GGLQVVTGPW [Pep5], the IC50 (cruzain; SD) is reported as 220 ± 0.48 µM, the IC50 ([1]; SD) is reported as 475.5 ± 1.65 µM and the “IC50 (µM) ± SD, cytotoxic activity” value [2] is reported as over 500 µM.
IPGGLSK [Pep1] was tested, and the IC50 (cruzain) was over 500 µM, the IC50 [1, 3] was over 500 µM and the “IC50 (µM) ± SD, cytotoxic activity” value [2] was over 500 µM.
For KGGLQVVTGAPWK [Pep7], the IC50 (cruzain; SD) was 388.5 ± 1.22 µM, the IC50 ([1]; SD) was 390.2 ± 2.1 µM and the “IC50 (µM) ± SD, cytotoxic activity” value [2] was over 500 µM.
For KGGLQVVTGPWK [Pep6], the IC50 (cruzain; SD) was 384.6 ± 0.77 µM, the IC50 [1, 3] was over 500 µM and the “IC50 (µM) ± SD, cytotoxic activity” value [2] was over 500 µM.
For KIPGGQVVTGPWK [Pep8], the IC50 (cruzain; SD) was 281.5 ± 2.19 µM, the IC50 ([1]; SD) was 471.3 ± 1.8 µM and the “IC50 (µM) ± SD, cytotoxic activity” value [2] was over 500 µM.
“KQVVTGK [Pep4, linear peptide derived from AsCystatin with lysine residues at each end]” was tested, and the IC50 (cruzain) was over 500 µM, the IC50 [1, 3] was over 500 µM and the “IC50 (µM) ± SD, cytotoxic activity” value [2] was over 500 µM.
For QSQVVTGAK [Pep3], the IC50 (cruzain) was over 500 µM, the IC50 [1, 3] was over 500 µM and the “IC50 (µM) ± SD, cytotoxic activity” value [2] was over 500 µM.
In the case of QVVTG [Pep2], the IC50 (cruzain) is reported as over 500 µM, the IC50 [1, 3] is reported as over 500 µM and the “IC50 (µM) ± SD, cytotoxic activity” value [2] is reported as over 500 µM.
